The source of these data is article PMC4625925, “One amino acid makes the difference: the formation of ent-kaurene and 16α-hydroxy-ent-kaurane by diterpene synthases in poplar” (BMC Plant Biology, 2015).

The target in test [1] is T1, PtTPS17 (Populus trichocarpa, UniProt A0A0S1TFB5).
T1 construct: N-terminally truncated (delta 65 aa, transit peptide removed), pET200 (N-terminal His tag), E. coli BL21(DE3), partially purified
T1 sequence (A0A0S1TFB5 66-795): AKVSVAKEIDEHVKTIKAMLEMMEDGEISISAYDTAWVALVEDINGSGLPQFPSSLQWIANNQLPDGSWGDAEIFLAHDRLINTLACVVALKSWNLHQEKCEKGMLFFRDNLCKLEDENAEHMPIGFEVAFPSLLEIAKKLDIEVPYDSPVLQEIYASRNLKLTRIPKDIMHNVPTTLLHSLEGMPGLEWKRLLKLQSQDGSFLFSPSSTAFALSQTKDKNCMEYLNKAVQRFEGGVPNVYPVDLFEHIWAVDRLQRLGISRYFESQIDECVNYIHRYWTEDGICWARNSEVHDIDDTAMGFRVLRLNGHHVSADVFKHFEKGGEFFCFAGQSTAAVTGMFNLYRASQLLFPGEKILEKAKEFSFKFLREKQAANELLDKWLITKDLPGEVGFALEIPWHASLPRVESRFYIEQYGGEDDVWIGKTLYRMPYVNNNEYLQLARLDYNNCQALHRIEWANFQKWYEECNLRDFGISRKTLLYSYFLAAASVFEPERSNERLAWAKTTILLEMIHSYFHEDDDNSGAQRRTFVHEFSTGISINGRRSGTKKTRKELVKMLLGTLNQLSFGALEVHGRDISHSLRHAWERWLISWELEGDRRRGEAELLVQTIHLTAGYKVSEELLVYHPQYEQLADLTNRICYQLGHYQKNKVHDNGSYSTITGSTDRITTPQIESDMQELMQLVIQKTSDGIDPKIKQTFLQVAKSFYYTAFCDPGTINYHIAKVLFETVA
Description: GC-MS product analysis. The class given is biochemical. The conditions noted are these: 50 µM GGPP, 5 mM MgCl2, pH 7.5, 25 °C, 2 h; product ent-CPP detected as copalol.

The target in test [2] is T2, PtTPS19 (Populus trichocarpa, UniProt A0A0S1TJ32).
T2 construct: N-terminally truncated (delta 42 aa, transit peptide removed), pET200 (N-terminal His tag), E. coli BL21(DE3), partially purified
T2 sequence (A0A0S1TJ32 entry or part of it): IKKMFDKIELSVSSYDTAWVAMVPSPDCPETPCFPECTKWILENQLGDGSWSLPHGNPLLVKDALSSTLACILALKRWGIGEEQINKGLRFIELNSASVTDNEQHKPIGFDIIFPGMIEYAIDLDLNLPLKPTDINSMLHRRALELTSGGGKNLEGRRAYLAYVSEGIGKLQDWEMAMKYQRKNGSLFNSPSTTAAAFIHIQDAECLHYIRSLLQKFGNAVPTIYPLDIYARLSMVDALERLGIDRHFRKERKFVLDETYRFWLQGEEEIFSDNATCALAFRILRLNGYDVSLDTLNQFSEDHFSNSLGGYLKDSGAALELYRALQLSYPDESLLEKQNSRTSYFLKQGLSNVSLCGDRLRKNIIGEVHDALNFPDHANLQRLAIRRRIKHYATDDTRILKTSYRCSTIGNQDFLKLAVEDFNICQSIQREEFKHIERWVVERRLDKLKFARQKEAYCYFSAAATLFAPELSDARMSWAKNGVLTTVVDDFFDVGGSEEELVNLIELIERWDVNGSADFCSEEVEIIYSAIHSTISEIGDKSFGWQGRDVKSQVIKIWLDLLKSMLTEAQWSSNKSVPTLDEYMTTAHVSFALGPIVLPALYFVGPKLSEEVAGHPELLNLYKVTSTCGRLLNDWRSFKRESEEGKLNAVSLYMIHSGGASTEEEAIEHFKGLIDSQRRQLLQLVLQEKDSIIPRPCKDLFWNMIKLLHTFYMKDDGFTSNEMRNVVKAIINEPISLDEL
Kind of test: GC-MS product analysis, ent-CPP made in situ. The class given is biochemical. The settings on record: ent-CPP from GGPP by coupled PtTPS17; 5 mM MgCl2, pH 7.5, 25 °C, 2 h.

`CC(C)=CCC/C(C)=C/CC/C(C)=C/CC/C(C)=C/COP(=O)(O)OP(=O)(O)O` [(E,E,E)-GGPP]: the GC-MS product analysis entry in test [1] is given as “When PtTPS17 was incubated with GGPP, copalol was detected”.
Consider `C=C1CC[C@@H]2C(C)(C)CCC[C@@]2(C)[C@@H]1CC/C(C)=C/COP(=O)(O)OP(=O)(O)O` [ent-CPP], for which the “GC-MS product analysis, ent-CPP made in situ” value in test [2] is reported as “PtTPS19 converted ent-CPP into ent-kaurene”.
